According to US4052514A, “Trihalosubstituted biphenylyl propionic acids” (The Boots Company Limited, priority 1971, dated 1977):

Test system: adjuvant arthritis
Experiment: rat adjuvant arthritis test (chronic; killed human tubercle bacilli, compounds given daily by mouth for 21 days)
Assay type: in vivo
Settings: for ADJUVANT ARTHRITIS (activity; 2-(2-fluoro-4-biphenylyl)propionic acid used as standard of reference): daily by mouth for 21 days, reference 2-(2-fluoro-4-biphenylyl)propionic acid = 1
Description: The best method of indicating long acting anti-inflammatory activity of the compounds is by means of a test in which compounds are administered chronically e.g. the rat adjuvant arthritis test. […] The adjuvant arthritis test conducted on the rat is, however a chronic test and is believed to give a good indication of the effectiveness of the compounds for the treatment of chronic conditions in humans. The adjuvant arthritis test is described by Newbould, B. B., in Br. J. Pharmac. Chemother., 1963, 21, 127. In the test arthritis is produced by injecting intradermally into the tail 0.1 ml. of a suspension of killed human tubercle bacilli (6 mg./ml.) in liquid paraffin BP. A polyarthritis develops over the next 3 weeks in untreated controls. The compounds under test (vehicle only for control animals) are given daily by mouth from the day the adjuvant is injected for 21 days. On day 21 the degree of arthritis is assessed on each hind foot. The degree of inhibition produced by a compound is estimated by comparison of the total arthritic scores with those found in the controls.
In the following Table are given the results in the adjuvant arthritis test for the four preferred compounds of the invention and 2-(2-fluoro-4-biphenylyl)propionic acid, the latter compound being used as a standard of reference in the adjuvant arthritis test.
As with the propionic acids of the invention the half-life of the compounds of the invention in the blood of the subject to which they are administered is a good indication of their duration of activity. The half-life may ve measured by giving oral doses of the compounds and determining levels in the plasma at various times thereafer, as previously described. As with the propionic acids of the invention one of the best methods of indicating long acting anti-inflammatory activity of the compounds is by means of a test in which compounds are administered chronically e.g. the rat adjuvant arthritis test.

| Structure (SMILES) | times as active as 2-fluoro-4-biphenylylacetic acid in adjuvant arthritis test (standard of reference 2-fluoro-4-biphenylylacetic acid) | ADJUVANT ARTHRITIS (activity; 2-(2-fluoro-4-biphenylyl)propionic acid used as standard of reference) |
| --- | --- | --- |
| O=C(O)Cc1ccc(-c2ccc(F)cc2F)c(F)c1 [2,2', 4'-trifluoro-4-biphenylacetic acid, 2,2',4'-trifluoro-4-biphenylylacetic acid] | more than 30 times | – |
| CC(C(=O)O)c1ccc(-c2ccc(F)cc2Cl)c(F)c1 (stereo not drawn) [2-(2'-chloro-2,4'-difluoro-4-biphenylyl)propionic acid] | – | > 3 |
| CC(C(=O)O)c1ccc(-c2ccc(F)cc2F)c(F)c1 (stereo not drawn) [2-(2,2',4'-trifluoro-4-biphenylyl)propionic acid] | – | > 10 |
| CC(C(=O)O)c1ccc(-c2ccc(F)cc2F)c(Cl)c1 (stereo not drawn) [2-(2-chloro-2',4'-difluoro-4-biphenylyl)propionic acid] | – | > 10 |
| CC(C(=O)O)c1ccc(-c2ccccc2)c(F)c1 (stereo not drawn) [2-(2-fluoro-4-biphenylyl)propionic acid, reference compound] | – | 1 |
| CC(C(=O)O)c1ccc(-c2ccc(Cl)cc2F)c(F)c1 (stereo not drawn) [2-(4'-chloro-2,2'-difluoro-4-biphenylyl)propionic acid] | – | > 3 |
